Values of other authors, collected in patent US11965206B2, “Method of dosing a patient with multiple drugs using adjusted phenotypes of CYP450 enzymes” (priority 2018, dated 2024).
Where two headings read alike, the source gives them in different places. One block for each compound: values may come before it.

How the values were obtained:
CYP450 enzyme 2C9 = CYP450 enzyme 2C9 (Homo sapiens, UniProt P11712); conditions: found in drug databases
CYP450 enzyme 2D6 = CYP450 enzyme 2D6 (Homo sapiens, UniProt P10635)
Sequence of CYP450 enzyme 2D6 (P10635 whole entry): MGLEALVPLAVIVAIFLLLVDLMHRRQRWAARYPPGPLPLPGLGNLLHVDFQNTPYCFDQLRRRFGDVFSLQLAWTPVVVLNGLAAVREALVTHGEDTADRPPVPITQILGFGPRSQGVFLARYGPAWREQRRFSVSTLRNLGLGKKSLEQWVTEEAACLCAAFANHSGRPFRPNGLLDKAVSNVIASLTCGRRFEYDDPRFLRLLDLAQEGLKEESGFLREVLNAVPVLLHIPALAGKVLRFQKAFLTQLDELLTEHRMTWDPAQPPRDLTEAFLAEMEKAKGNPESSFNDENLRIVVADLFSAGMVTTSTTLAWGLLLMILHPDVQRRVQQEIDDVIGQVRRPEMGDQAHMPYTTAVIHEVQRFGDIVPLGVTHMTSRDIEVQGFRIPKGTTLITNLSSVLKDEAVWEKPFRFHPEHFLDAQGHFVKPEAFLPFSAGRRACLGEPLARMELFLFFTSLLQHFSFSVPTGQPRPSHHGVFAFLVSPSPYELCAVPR

CYP450 enzyme 3A4 = CYP450 enzyme 3A4 (Homo sapiens, UniProt P08684)
Sequence of CYP450 enzyme 3A4 (P08684 whole entry): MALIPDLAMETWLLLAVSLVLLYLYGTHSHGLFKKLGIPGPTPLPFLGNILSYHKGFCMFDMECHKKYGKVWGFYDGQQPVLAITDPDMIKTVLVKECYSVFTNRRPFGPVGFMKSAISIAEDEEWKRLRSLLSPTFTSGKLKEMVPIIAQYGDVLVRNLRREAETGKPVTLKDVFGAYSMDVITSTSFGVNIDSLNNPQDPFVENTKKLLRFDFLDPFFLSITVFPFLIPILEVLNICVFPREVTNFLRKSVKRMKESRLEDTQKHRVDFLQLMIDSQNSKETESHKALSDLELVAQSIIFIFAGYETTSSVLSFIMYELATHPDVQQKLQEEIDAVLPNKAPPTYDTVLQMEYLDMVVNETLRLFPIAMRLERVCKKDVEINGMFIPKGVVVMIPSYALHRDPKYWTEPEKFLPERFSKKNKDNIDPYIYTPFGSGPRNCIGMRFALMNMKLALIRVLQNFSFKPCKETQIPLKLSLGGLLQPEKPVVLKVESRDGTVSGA

CYP450 enzyme 2C19 = CYP450 enzyme 2C19 (Homo sapiens, UniProt P33261); conditions: found in drug databases
Sequence of CYP450 enzyme 2C19 (P33261 whole entry): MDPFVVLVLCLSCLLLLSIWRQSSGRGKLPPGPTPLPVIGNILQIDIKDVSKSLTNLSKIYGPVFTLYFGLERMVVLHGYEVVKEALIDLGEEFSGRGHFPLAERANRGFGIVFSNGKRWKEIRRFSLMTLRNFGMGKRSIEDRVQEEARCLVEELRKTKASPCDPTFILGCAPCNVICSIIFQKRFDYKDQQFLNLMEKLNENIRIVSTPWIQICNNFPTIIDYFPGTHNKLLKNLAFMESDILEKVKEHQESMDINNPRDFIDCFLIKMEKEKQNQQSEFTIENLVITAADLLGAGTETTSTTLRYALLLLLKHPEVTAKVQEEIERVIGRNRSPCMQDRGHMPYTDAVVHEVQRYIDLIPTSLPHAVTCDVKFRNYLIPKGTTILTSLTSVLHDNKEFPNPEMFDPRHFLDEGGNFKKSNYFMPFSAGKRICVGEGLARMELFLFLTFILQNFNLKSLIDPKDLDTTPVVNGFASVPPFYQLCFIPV

CYP450 enzyme 2B6 = molecular target: T1, CYP450 enzyme 2B6 (Homo sapiens, UniProt P20813); conditions: found in drug databases
T1 sequence (P20813 1-491): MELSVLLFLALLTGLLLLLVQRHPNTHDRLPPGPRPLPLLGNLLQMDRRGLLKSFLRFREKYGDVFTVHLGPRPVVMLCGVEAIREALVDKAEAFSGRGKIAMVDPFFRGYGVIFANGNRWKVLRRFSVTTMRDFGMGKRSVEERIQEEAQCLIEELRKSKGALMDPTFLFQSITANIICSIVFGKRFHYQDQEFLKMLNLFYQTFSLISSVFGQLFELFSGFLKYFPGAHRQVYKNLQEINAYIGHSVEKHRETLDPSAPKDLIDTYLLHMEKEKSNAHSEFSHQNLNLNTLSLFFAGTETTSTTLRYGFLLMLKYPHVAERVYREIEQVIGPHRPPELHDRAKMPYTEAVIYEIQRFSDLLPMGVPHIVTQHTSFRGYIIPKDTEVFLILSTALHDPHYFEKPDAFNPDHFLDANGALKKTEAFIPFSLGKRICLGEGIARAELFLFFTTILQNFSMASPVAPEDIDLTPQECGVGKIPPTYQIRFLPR

Sequence of CYP450 enzyme 2C9 (P11712 whole entry): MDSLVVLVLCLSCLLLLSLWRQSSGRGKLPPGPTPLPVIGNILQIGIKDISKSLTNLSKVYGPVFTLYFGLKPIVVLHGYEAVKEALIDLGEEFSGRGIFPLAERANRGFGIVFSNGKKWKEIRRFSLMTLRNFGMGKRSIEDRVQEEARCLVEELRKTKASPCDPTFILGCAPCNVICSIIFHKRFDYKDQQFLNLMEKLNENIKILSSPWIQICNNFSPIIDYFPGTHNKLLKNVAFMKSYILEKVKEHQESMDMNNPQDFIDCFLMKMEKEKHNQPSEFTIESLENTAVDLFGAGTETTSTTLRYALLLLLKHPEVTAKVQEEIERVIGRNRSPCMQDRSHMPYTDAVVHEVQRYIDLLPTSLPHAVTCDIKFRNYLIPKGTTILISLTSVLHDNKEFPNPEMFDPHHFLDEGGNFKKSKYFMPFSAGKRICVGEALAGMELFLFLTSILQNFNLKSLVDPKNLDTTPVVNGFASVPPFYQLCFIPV

SMILES: O=C(CCCN1CCC(O)(c2ccc(Cl)cc2)CC1)c1ccc(F)cc1 [Haldol]
- strong, moderate or weak inhibitor of 2D6 (CYP450 enzyme 2D6; found in drug databases): weak inhibitor
- substrate for 2D6 (CYP450 enzyme 2D6; found in drug databases): substrate

SMILES: COCCc1ccc(OCC(O)CNC(C)C)cc1 (stereo not shown) [metoprolol]
- substrate for 2D6 (CYP450 enzyme 2D6; found in drug databases): substrate

SMILES: CCCC(CCC)C(=O)O [Depakote]
- strong, moderate or weak inhibitor of 2C9 (CYP450 enzyme 2C9): weak inhibitor
- substrate for 2C9 (CYP450 enzyme 2C9): substrate
- substrate for 2B6 (CYP450 enzyme 2B6): substrate
- strong, moderate or weak inhibitor of 2C19 (CYP450 enzyme 2C19): weak inhibitor

SMILES: CNCCC(Oc1ccc(C(F)(F)F)cc1)c1ccccc1 (stereo not shown) [Prozac]
- strong, moderate or weak inhibitor of 2C9 (CYP450 enzyme 2C9): moderate inhibitor
- substrate for 2C9 (CYP450 enzyme 2C9): substrate
- substrate for 2D6 (CYP450 enzyme 2D6; found in drug databases): substrate

Continued, values first:

- substrate for 2C9 (CYP450 enzyme 2C9): substrate
SMILES: CCCCC1=NC2(CCCC2)C(=O)N1Cc1ccc(-c2ccccc2-c2nnn[nH]2)cc1 [Irbesartan]

- strong, moderate or weak inhibitor of 2D6 (CYP450 enzyme 2D6; found in drug databases): weak inhibitor
- substrate for 3A4 (CYP450 enzyme 3A4): substrate
- substrate for 2C19 (CYP450 enzyme 2C19): substrate
SMILES: CN(C)CCC[C@@]1(c2ccc(F)cc2)OCc2cc(C#N)ccc21 [Lexapro]

- strong, moderate or weak inhibitor of 2D6 (CYP450 enzyme 2D6; found in drug databases): weak inhibitor
SMILES: COc1ccc([C@@H]2Sc3ccccc3N(CCN(C)C)C(=O)[C@@H]2OC(C)=O)cc1 [Diltiazem, diltiazem]

- substrate for 2D6 (CYP450 enzyme 2D6): substrate
SMILES: Fc1ccc([C@@H]2CCNC[C@H]2COc2ccc3c(c2)OCO3)cc1 [paroxetine]

- substrate for 2D6 (CYP450 enzyme 2D6; found in drug databases): substrate
SMILES: O=C1CCc2ccc(OCCCCN3CCN(c4cccc(Cl)c4Cl)CC3)cc2N1 [Abilify]

- strong, moderate or weak inhibitor of 2D6 (CYP450 enzyme 2D6; found in drug databases): weak inhibitor
- substrate for 2D6 (CYP450 enzyme 2D6; found in drug databases): substrate
SMILES: Cc1nc2n(c(=O)c1CCN1CCC(c3noc4cc(F)ccc34)CC1)CCCC2 [Risperidone]
